These results are taken from patent US9695155B2, “Herbicidal substituted pyrimidinyloxy benzene compounds” (E. I. DU PONT DE NEMOURS AND COMPANY, priority 2013, dated 2017).

The structures appear in SMILES notation.

In assay [1] the test system is ducksalad. Description: Test C flooded paddy test. The conditions noted are these: Flood, scale 0 to 100 (0 no effect, 100 complete control), 13 to 15 days. It counts as in vivo, Heteranthera limosa. The method, boiled down:
(§1)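 Compound was added to standing water 3 cm above soil, flood maintained, and plants held in a greenhouse before visual scoring against controls at 13 to 15 days.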

Assay [2] relates to rice. Description: Test C flooded paddy test. It counts as in vivo, Oryza sativa. The conditions noted are these: Flood, scale 0 to 100 (0 no effect, 100 complete control), 13 to 15 days. Summed up:
as §1

In assay [3] the test system is barnyardgrass. As to the kind of experiment: Test C flooded paddy test. Conditions: Flood, scale 0 to 100 (0 no effect, 100 complete control), 13 to 15 days. It counts as in vivo, Echinochloa crus-galli. The method, boiled down: as §1
The test system of assay [4] is corn. As to the kind of experiment: Test E postemergence. It counts as in vivo, Zea mays. The source says: (§2) Seeds of plant species selected from corn (Zea mays), soybean (Glycine max), velvetleaf (Abutilon theophrasti), lambsquarters (Chenopodium album), wild poinsettia (Euphorbia heterophylla), palmer pigweed (Amaranthus palmeri), waterhemp (common waterhemp, Amaranthus rudis), surinam grass (Brachiaria decumbens), large (Lg) crabgrass (Digitaria sanguinalis), Brazilian crabgrass (Digitaria horizontalis), fall panicum (Panicum dichotomiflorum), giant foxtail (Setaria faberii), green foxtail (Setaria viridis), goosegrass (Eleusine indica), johnsongrass (Sorghum halepense), ragweed (common ragweed, Ambrosia elatior), barnyardgrass (Echinochloa crus-galli), sandbur (southern sandbur, Cenchrus echinatus), arrowleaf sida (Sida rhombifolia), Italian ryegrass (Lolium multiflorum), dayflower (Virginia (VA) dayflower, Commelina virginica), field bindweed (Convolvulus arvensis), morningglory (Ipomoea coccinea), nightshade (eastern black nightshade, Solanum ptycanthum), kochia (Kochia scoparia), yellow nutsedge (Cyperus esculentus), cocklebur (common cocklebur, Xanthium strumarium), smartweed (ladysthumb smartweed, and hairy beggarticks (Bidens pilosa), were planted into a silt loam soil and treated preemergence with test chemicals formulated in a non-phytotoxic solvent mixture which included a surfactant.
(§3) At the same time, plants from these crop and weed species and also horseweed (Canada horseweed, Conyza canadensis), waterhemp_RES1, (ALS & Triazine resistant common waterhemp, Amaranthus rudis), and waterhemp_RES2, (ALS & HPPD resistant common waterhemp, Amaranthus rudis) were planted in pots containing Redi-Earth® planting medium (Scotts Company, 14111 Scottslawn Road, Marysville, Ohio 43041) comprising spaghnum peat moss, vermiculite, wetting agent and starter nutrients were treated with postemergence applications of test chemicals formulated in the same manner. Plants ranged in height from 2 to 18 cm for postemergence treatments (1- to 4-leaf stage). Treated plants and controls were maintained in a greenhouse for 14 to 21 days, after which time all species were compared to controls and visually evaluated. Plant response ratings, summarized in Table E, are based on a scale of 0 to 100 where 0 is no effect and 100 is complete control. A dash (-) response means no test result.

Assay [5] relates to palmer pigweed. Description: Test E postemergence. It is filed as in vivo, Amaranthus palmeri.
Text: as §2, §3

Assay [6] relates to fall panicum. As to the kind of experiment: Test E postemergence. It counts as in vivo, Panicum dichotomiflorum.
Text: as §2, §3

Assay [7] concerns barnyardgrass. As to the kind of experiment: Test E postemergence. It counts as in vivo, Echinochloa crus-galli.
Text: as §2, §3

The mark [8] stands for this setting: Postemergence, 31 g ai/ha, scale 0 to 100.
Where [9] appears, read: Postemergence, 62 g ai/ha, scale 0 to 100.
Setting [10] is: Postemergence, 125 g ai/ha, scale 0 to 100.
Where [11] appears, read: postemergence, 16 g ai/ha, scale 0 to 100, 0 no effect, 100 complete control.

Regarding `N#Cc1cccc(Oc2ncc(Cl)cn2)c1-n1cc(OC(F)F)cn1` [Compound 97], the “Plant response rating, Ducksalad” value in assay [1] (31 g ai/ha) came out at 0; in assay [1] (62 g ai/ha), 40; in assay [1] (125 g ai/ha), 75; in assay [1] (250 g ai/ha), 80. Besides, the “Plant response rating, Rice” value in assay [2] (31 g ai/ha), in assay [2] (62 g ai/ha), in assay [2] (125 g ai/ha) and in assay [2] (250 g ai/ha) was 0 each time. Moreover, the “Plant response rating, Barnyardgrass” value in assay [3] (31 g ai/ha), in assay [3] (62 g ai/ha), in assay [3] (125 g ai/ha) and in assay [3] (250 g ai/ha) was 0 each time.

As for `FC(F)c1cnn(-c2c(Cl)cccc2Oc2ncc(Cl)cn2)c1` [Compound 192], the “Plant response rating, Ducksalad” value in assay [1] (31 g ai/ha) was found to be 0; in assay [1] (62 g ai/ha), 0; in assay [1] (125 g ai/ha) it was 70; in assay [1] (250 g ai/ha) it was 75. Also, the “Plant response rating, Rice” value in assay [2] (31 g ai/ha), in assay [2] (62 g ai/ha), in assay [2] (125 g ai/ha) and in assay [2] (250 g ai/ha) was 0 each time. In addition, the “Plant response rating, Barnyardgrass” value in assay [3] (31 g ai/ha), in assay [3] (62 g ai/ha), in assay [3] (125 g ai/ha) and in assay [3] (250 g ai/ha) was 0 each time.

Take `Clc1cnc(Oc2cccc(Cl)c2-n2cc(I)cn2)nc1` [Compound 181]: the “Plant response rating, Corn” value in assay [4] (setting [8]) was 5; in assay [4] (setting [9]), 15; in assay [4] (setting [10]), 15; in assay [4] (setting [11]), 5. Further, the “Plant response rating, Pigweed, Palmer” value in assay [5] (setting [8]) was 70; in assay [5] (setting [9]), 90; in assay [5] (setting [10]), 98; in assay [5] (setting [11]), 80. For the same compound, the “Plant response rating, Panicum, Fall” value in assay [6] (setting [8]) amounted to 20; in assay [6] (setting [9]), 50; in assay [6] (setting [10]) it was 30; in assay [6] (setting [11]) it was 20. The “Plant response rating, Barnyardgrass” value in assay [7] (setting [8]) turned out to be 20; in assay [7] (setting [9]), 15; in assay [7] (setting [10]), 25; in assay [7] (setting [11]), 10.

In turn, `Clc1cnn(-c2ccccc2Oc2ncc(Br)cn2)c1` [Compound 5, 5-bromo-2-[2-(4-chloro-1H-pyrazol-1-yl)phenoxy]pyrimidine] registered a corn plant response (injury) rating, 0-100 at 31 g/ha in assay [4] (Zea mays, post-emergence, Postemergence, 31 g ai/ha, scale 0 to 100) of 0%. In assay [4] (Zea mays, post-emergence, Postemergence, 62 g ai/ha, scale 0 to 100), this compound had a corn plant response (injury) rating, 0-100 at 62 g/ha of 0%. In addition, the corn plant response (injury) rating, 0-100 at 125 g/ha in assay [4] (Zea mays, post-emergence, Postemergence, 125 g ai/ha, scale 0 to 100) was found to be 0%. Also, the corn plant response (injury) rating, 0-100 at 250 g/ha in assay [4] (Zea mays, post-emergence, Postemergence, 250 g ai/ha, scale 0 to 100) came out at 0%. For the same compound, the corn plant response (injury) rating, 0-100 at 16 g/ha in assay [4] (Zea mays, post-emergence, postemergence, 16 g ai/ha, scale 0 to 100, 0 no effect, 100 complete control) is 0%. The pest or weed control at 31 g/ha in assay [5] (post-emergence, Postemergence, 31 g ai/ha, scale 0 to 100, read-out: Plant response rating, Pigweed, Palmer) turned out to be 75%; in assay [7] (Echinochloa crus-galli, post-emergence, Postemergence, 31 g ai/ha, scale 0 to 100, read-out: Plant response rating, Barnyardgrass), 0%. The pest or weed control at 62 g/ha was determined as 85% in assay [5] (post-emergence, Postemergence, 62 g ai/ha, scale 0 to 100, read-out: Plant response rating, Pigweed, Palmer); 0% in assay [6] (Panicum dichotomiflorum, post-emergence, Postemergence, 62 g ai/ha, scale 0 to 100, read-out: Plant response rating, Panicum, Fall); 0% in assay [7] (Echinochloa crus-galli, post-emergence, Postemergence, 62 g ai/ha, scale 0 to 100, read-out: Plant response rating, Barnyardgrass). Besides, the pest or weed control at 125 g/ha in assay [5] (post-emergence, Postemergence, 125 g ai/ha, scale 0 to 100, read-out: Plant response rating, Pigweed, Palmer) was 95%; in assay [6] (Panicum dichotomiflorum, post-emergence, Postemergence, 125 g ai/ha, scale 0 to 100, read-out: Plant response rating, Panicum, Fall) it was 0%; in assay [7] (Echinochloa crus-galli, post-emergence, Postemergence, 125 g ai/ha, scale 0 to 100, read-out: Plant response rating, Barnyardgrass), 0%. Further, the pest or weed control at 250 g/ha was 98% in assay [5] (post-emergence, Postemergence, 250 g ai/ha, scale 0 to 100, read-out: Plant response rating, Pigweed, Palmer); 0% in assay [6] (Panicum dichotomiflorum, post-emergence, Postemergence, 250 g ai/ha, scale 0 to 100, read-out: Plant response rating, Panicum, Fall); 10% in assay [7] (Echinochloa crus-galli, post-emergence, Postemergence, 250 g ai/ha, scale 0 to 100, read-out: Plant response rating, Barnyardgrass). The pest or weed control at 16 g/ha was determined as 60% in assay [5] (post-emergence, postemergence, 16 g ai/ha, scale 0 to 100, 0 no effect, 100 complete control, read-out: Plant response rating, Pigweed, Palmer); 0% in assay [6] (Panicum dichotomiflorum, post-emergence, postemergence, 16 g ai/ha, scale 0 to 100, 0 no effect, 100 complete control, read-out: Plant response rating, Panicum, Fall); 0% in assay [7] (Echinochloa crus-galli, post-emergence, postemergence, 16 g ai/ha, scale 0 to 100, 0 no effect, 100 complete control, read-out: Plant response rating, Barnyardgrass).

`Fc1cccc(Oc2ncc(Cl)cn2)c1-n1cc(Cl)cn1` [Compound 177]: the “Plant response rating, Ducksalad” value is listed as 20 in assay [1] (31 g ai/ha), 60 in assay [1] (62 g ai/ha), 85 in assay [1] (125 g ai/ha) and 95 in assay [1] (250 g ai/ha). In addition, the “Plant response rating, Rice” value in assay [2] (31 g ai/ha) worked out at 0; in assay [2] (62 g ai/ha), 0; in assay [2] (125 g ai/ha), 10; in assay [2] (250 g ai/ha), 10. Further, the “Plant response rating, Barnyardgrass” value in assay [3] (31 g ai/ha), in assay [3] (62 g ai/ha), in assay [3] (125 g ai/ha) and in assay [3] (250 g ai/ha) was 0 throughout.

As for `Fc1cccc(Oc2ncc(Cl)cn2)c1-n1cc(C(F)F)nn1` [Compound 141, 5-chloro-2-[2-[4-(difluoromethyl)-1H-1,2,3-triazol-1-yl]-3-fluorophenoxy]pyrimidine], the “Plant response rating, Ducksalad” value in assay [1] (31 g ai/ha) is recorded as 65; in assay [1] (62 g ai/ha) it was 80; in assay [1] (125 g ai/ha) it was 95; in assay [1] (250 g ai/ha) it was 100. In addition, the “Plant response rating, Rice” value turned out to be 0 in assay [2] (31 g ai/ha), 0 in assay [2] (62 g ai/ha), 40 in assay [2] (125 g ai/ha) and 60 in assay [2] (250 g ai/ha). The “Plant response rating, Barnyardgrass” value is listed as 0 in assay [3] (31 g ai/ha), 0 in assay [3] (62 g ai/ha), 15 in assay [3] (125 g ai/ha) and 20 in assay [3] (250 g ai/ha).

Consider `FC(F)c1cnn(-c2ccccc2Oc2ncc(Cl)cn2)c1` [Compound 80, 5-chloro-2-[2-[4-(difluoromethyl)-1H-pyrazol-1-yl]phenoxy]pyrimidine], for which the “Plant response rating, Ducksalad” value in assay [1] (250 g ai/ha) came out at 50; in assay [1] (500 g ai/ha), 75; in assay [1] (1000 g ai/ha), 80; in assay [1] (2000 g ai/ha), 80. The “Plant response rating, Rice” value in assay [2] (250 g ai/ha), in assay [2] (500 g ai/ha), in assay [2] (1000 g ai/ha) and in assay [2] (2000 g ai/ha) was 0 in each case. For the same compound, the “Plant response rating, Barnyardgrass” value in assay [3] (250 g ai/ha), in assay [3] (500 g ai/ha), in assay [3] (1000 g ai/ha) and in assay [3] (2000 g ai/ha) was 0 each time.
